# Test results published in the METLIN SMRT retention time set (Domingo-Almenara et al. 2019).
# Assay: gradient 5% acetonitrile 3 min, to 50% in 2 min, to 85% in 15 min, held 3 min, 100 µL/min
# Conditions: column: Zorbax Extend-C18 2.1 x 50 mm; eluents: water / acetonitrile, 0.1% formic acid
# In short: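 The system's dead and dwell volumes were 40 μL and 900 μL, with a Zorbax Extend-C18 column (2.1 × 50 mm, 1.8 μm) run at 100 μL/min in water and acetonitrile containing 0.1% formic acid each. Pure standards were analyzed in mixtures of ~100 molecules by HPLC–quadrupole time-of-flight mass spectrometry in positive and negative ionization mode. Retention time was assigned from computationally picked, manually inspected adduct peaks.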
row,Compound,RP-LC retention time
1,CC(Oc1ccccc1)c1nc(-c2ccc3c(c2)nnn3CCC(=O)N2CCOCC2)no1 (stereo not drawn),852 s
2,CSc1ccc(Nc2ncccc2S(=O)(=O)Nc2ccc(F)cc2)cc1,1100 s
3,Cn1cc(-c2cc3n(n2)CCC(=O)N3CCCC(=O)NCCCN2CCCC2)c2ccccc21,621 s
4,O=C(Nc1nnc(-c2ccsc2)o1)c1ccno1,617 s
5,COc1ccc(CC(=O)Nc2cccc(-c3ccc4nnc(-c5ccncc5)n4n3)c2)cc1,624 s
6,Fc1cccc(N2CC3(CCN(Cc4ccncc4F)CC3)C2c2ccccc2)c1 (stereo not drawn),650 s
7,CCOC(=O)C1=C(C)NC(=O)NC1c1nc2ccccc2n1CC (stereo not drawn),597 s
8,COC(=O)c1ccc(NC(=O)N(C)CCc2noc(-c3ccccc3)n2)cc1,840 s
9,CCCCC(=O)N1CCC2(C1)C(=O)N(C)c1ccc(OC)cc12 (stereo not drawn),744 s
10,O=C(CCCn1c(=O)c2cccn2c2ccc(F)cc21)NCCCN1CCCCCC1,645 s
11,O=C(Cn1ccn2nc(-c3ccccc3)cc2c1=O)NCc1ccccc1Cl,817 s
12,Cc1ccc(NC(=O)N2CCC3(CC2)NC(=O)c2cc(Cl)ccc2N3C)cc1C,904 s
13,Cc1ccccc1Cn1c(CN2CCC(C(=O)N3CCCCCC3)CC2)cc2ccccc21,838 s
14,CCN1CCN(CCNC(=O)CN2C(=O)C3CCCCN3c3ccc(C(=O)N4CCCC4)cc32)CC1 (stereo not drawn),591 s
15,O=C(Nc1cccc2ccc(-n3ccnc3)nc12)c1ccsc1,615 s
16,Cn1c(=O)n(CC(=O)Nc2ccccc2Cl)c(=O)c2cnc(-c3ccccc3)nc21,1020 s
17,Cc1cccc2c(=O)n(C3CCN(S(=O)(=O)c4ccc(C(C)C)cc4)CC3)cnc12,1120 s
18,COC(=O)c1ccc(C(=O)OC)c(NC(=O)c2cnc3n(c2=O)CCS3)c1,700 s
19,COc1ccccc1NC(=O)NCCCn1c(C(F)(F)F)nc2cccnc21,797 s
20,CCCc1nnc(-c2cccnc2N2CCN(C(=O)c3ccc4ncccc4c3)CC2)o1,660 s
21,Fc1cccc(CN2CCc3nc(N4CCOCC4)ncc3C2)c1,604 s
22,Cc1cc(C)cc(S(=O)(=O)N2CCC(c3nc(C(=O)N4CCCC4)c(C)o3)CC2)c1,1010 s

row,Compound,RP-LC retention time
1,CCNc1cc(N2CCCC(CCC(=O)NCCOC)C2)ncn1 (stereo not drawn),580 s
2,COc1ccccc1-n1nnc(C(=O)Nc2nc(C)cs2)c1-c1ccccn1,758 s
3,Cc1ccsc1C(=O)N1CCC2(CC1)N=C(c1ccc(Cl)cc1)NO2,896 s
4,CN(C)c1cc(N2CCCC(NC(=O)c3ccccn3)C2)ncn1 (stereo not drawn),559 s
5,Cc1c(Cl)cccc1NC(=O)N1CCc2nc[nH]c2C1,592 s
6,CCN1C(=O)CCc2cc(NS(=O)(=O)c3cccc(Br)c3)ccc21,833 s
7,CCOC(=O)c1[nH]c(C)c(C(=O)N2CCC(CC(=O)NC(C)CC)CC2)c1C (stereo not drawn),670 s
8,Cc1ccc(-n2c(N3CCCC(C(=O)NCc4ccc(C)o4)C3)nc3ccsc3c2=O)cc1 (stereo not drawn),893 s
9,COc1ccc2c(c1)C1(CCN(C(=O)c3ccc(C)cc3)C1)C(=O)N2 (stereo not drawn),727 s
10,CCS(=O)(=O)c1ccc2c(c1)N(Cc1nc(-c3ccccc3)no1)C(=O)CO2,865 s
11,COc1cccc(Cn2c(C(=O)N3CCC(C(=O)NCc4ccc(C)o4)CC3)cc3ccsc32)c1,970 s
12,O=C(NC1CCCC1)C1CCN(c2nc3ccc(-c4cncnc4)nc3s2)CC1,776 s
13,CN1CCN(CCNc2ccc(CO)c3sc4ccccc4c(=O)c23)CC1,616 s
14,Cc1cc(C)nc(Nc2nc(C(=O)Nc3ccc(N4CCOCC4)cc3)cs2)n1,746 s
15,COc1ccc(F)cc1S(=O)(=O)NC1CCc2nnc(C)n2CC1 (stereo not drawn),613 s
16,COc1ccc(NC(=O)Cn2cc(C(=O)C3CC3)c3ccccc32)cc1,864 s
17,c1cc2c(cc1-c1noc(-c3ccc4c(c3)OCO4)n1)ncn2CCN1CCCC1,634 s
18,COc1ccc(S(=O)(=O)N2CCCC(C(=O)N3CCN(c4ccccc4)CC3)C2)cc1Cl (stereo not drawn),1010 s
19,O=C(NCc1ccc2c(c1)OCO2)C1CCCN(C(=O)c2cc(-c3ccncc3)n[nH]2)C1 (stereo not drawn),599 s
20,C=CCn1c(SCC(=O)N2CCC(C(N)=O)CC2)nnc1-c1sc2ncccc2c1N,616 s
21,O=C(NCCc1csc(-c2cccs2)n1)C1CCN(S(=O)(=O)c2ccc(Cl)cc2)CC1,963 s
22,Cc1cc(C)n(-c2ccc(N3CCN(C(=O)c4ccc(S(N)(=O)=O)cc4)CC3)nn2)n1,620 s

row,Compound,RP-LC retention time
1,COc1ccc(NC(=O)C2CCN(S(C)(=O)=O)c3cc(C)ccc3O2)cc1 (stereo not drawn),872 s
2,O=C(CCn1cnc2cc(-c3noc(-c4cncc(Br)c4)n3)ccc21)N1CCCCCC1,814 s
3,CCOC(=O)c1cccc(NC(=O)Cn2c(=O)c(CCC(=O)NC)nc3ccccc32)c1,741 s
4,COc1cccc(Nc2nc(C)c(C(=O)Nc3cc(F)cc(F)c3)s2)c1,1040 s
5,CCOc1ccc(NC(=O)c2cnc3c(c2)c(=O)n(C)c(=O)n3-c2ccc(F)cc2)cc1,866 s
6,CCC(=O)N1CCC2(CC1)NC(=O)c1ccccc1O2,649 s
7,COC(=O)c1ccc(NC(=O)c2csc(-c3cn(C)c4ncccc34)n2)cc1,990 s
8,CCCn1cc(CCNC(=O)Nc2ccc(C)c(F)c2)c2cccnc21,807 s
9,CCC(C)n1c(=O)c2ccccc2n(Cc2nc(-c3cccc(C(F)(F)F)c3)no2)c1=O (stereo not drawn),1300 s
10,O=c1ccn(-c2ccc(Cl)cc2)nc1-c1nc(-c2ccc(F)c(Br)c2)no1,1080 s
11,Cn1ncc2c3ccccc3n(CC(=O)N3CCN(Cc4ccccc4)CC3)c2c1=O,639 s
12,CCN1CCN(C(=O)CC(c2cc(OC)c(OC)c(OC)c2)N2Cc3ccccc3C2=O)CC1 (stereo not drawn),613 s
13,CCOc1ccc(CNC(=O)C2CCCN2S(=O)(=O)c2cc3c(cc2Cl)NC(=O)CO3)cc1 (stereo not drawn),760 s
14,CCc1nc(-c2cc(S(=O)(=O)NCC(=O)N3CCCCC3)c(C)s2)no1,891 s
15,O=C(NCCN1CCCCC1)C1CCc2sc(C(=O)N3CCCCC3)cc2C1 (stereo not drawn),558 s
16,CCc1sc(NC(=O)Cc2ccc(C)cc2)nc1-c1ccccc1,1150 s
17,O=C(NCCN1CCCCC1)c1cc2c(s1)CCN(C(=O)c1ccc(Cl)cc1)C2,650 s
18,CC(C)Cn1c(CCNC(=O)c2ccc(F)cc2)nc2cccnc21,700 s
19,Cc1ccc2nc(C(=O)NCc3cccc(Cl)c3)cn2c1,718 s
20,O=C1NCCN2CC3(CCN(C(=O)Nc4ccccc4)CC3)CC12 (stereo not drawn),570 s
21,CC1CCN(CCCC(=O)c2ccc(F)cc2)CC1,685 s
22,CC(C)NC(=O)N1CCCC(c2cccc(C(=O)NCCCN3CCOCC3)c2)C1 (stereo not drawn),598 s

row,Compound,RP-LC retention time
1,CCn1cc(NC(=O)Nc2nc(C)cs2)c2ccccc21,792 s
2,Cn1c(N2CCCCS2(=O)=O)nc(C(=O)NCc2ccc(F)cc2)c(O)c1=O,864 s
3,CNC(=O)C1CCN(C(=O)Nc2ccc(NC(=O)Nc3ccc(OC)cc3)cc2)CC1,638 s
4,O=[N+]([O-])c1ccc(CSc2nnc(-c3cccc(S(=O)(=O)N4CCCC4)c3)o2)cc1,937 s
5,COc1ccc(C)cc1NC(=O)NCCc1cn(C)c2ncccc12,676 s
6,Cc1nc(CC(=O)NCc2ccccc2C(F)(F)F)sc1C(=O)NCC(C)C,847 s
7,CC1CCCN(C(=O)c2cc3c(s2)N(C)CCC3)C1 (stereo not drawn),976 s
8,CCCS(=O)(=O)N1CCC(Cc2nncn2-c2ccccc2)CC1,713 s
9,O=C(NCc1ccncc1)c1ccc(-c2ccc(N3CCSCC3)nc2)cc1,574 s
10,CC1(C(=O)NC2CCCC2)Cn2cnc(C(=O)NCc3ccccc3F)c2C(=O)N1C1CC1 (stereo not drawn),778 s
11,COc1cc(Cc2nc(-c3cccc(-c4ccn[nH]4)c3)no2)cc(OC)c1,937 s
12,Cc1ccc(NC(=O)N2CCN(c3nc4cccnc4n(C)c3=O)CC2)cc1Cl,951 s
13,CCCCn1cc(S(=O)(=O)Nc2ccc(CC)cc2)c2cccnc21,1040 s
14,O=C1CCN(C(=O)C2CCN(C(=O)c3cccs3)CC2)CCCCCCN1,639 s
15,O=C(Nc1ccc(Cl)cc1)C1CCN(S(=O)(=O)c2ccc(-c3noc(C4CC4)n3)cc2)CC1,1100 s
16,COc1ccc(Cn2c(=O)n(C(C)C)c(=O)c3oc4ccccc4c32)cc1,976 s
17,CNC(=O)Cc1csc(NC(=O)CN(C)c2nc3ccccc3s2)n1,624 s
18,O=C(NCC1CCN(c2ncccn2)CC1)C(=O)Nc1ccon1,614 s
19,O=C(NCCC1=CCCCC1)c1c[nH]c2ncccc12,968 s
20,O=C(CC1CCCCC1)NC1CCN(C(=O)c2cc(-c3cccc(Cl)c3)n[nH]2)CC1,797 s
21,Cc1ccc(NC(=O)C2CCCN(S(=O)(=O)c3cc(-c4noc(C)n4)cs3)C2)c(Cl)c1 (stereo not drawn),1060 s
22,O=C(c1ccc(F)c(F)c1)N1CCC(n2c(-c3ccoc3)nc3cccnc32)C1 (stereo not drawn),745 s
